Data reported in patent publication US4430327A, “Method for treating pregnant females for pain and anxiety” (Eli Lilly and Company, priority 1982, dated 1984).

How the values were obtained:
[1] = Placental transport in pregnant ewes: maternal and fetal serum levels after intramuscular administration; assay type: in vivo; conditions: sheep
Procedure: In the assay using pregnant ewes, fetal jugular veins and carotid arteries were catheterized and externalized. Maternal femoral arteries were also catheterized. Upon stabilization of the animals, metkephamid (acetate salt) was given intramuscularly, and maternal (10 ml.) and fetal (7 ml.) arterial blood were taken at 0, 10, 20, and 45 minutes. In this assay, 5 ewes at various stages of pregnancy ranging from day 115 to day 145 of a 145-147 day gestation period were used.
(§1) In assaying for metkephamid, 1 ml. serum samples containing 6.72 mg. NaF and 8.0 mg. ethylenediamine tetraacetic acid (EDTA) were prepared and precipitated by addition of 2 ml. acetone. The resulting supernatants were saturated with NaCl and extracted with ethyl acetate. The extracts were dried and derivatized with Fluram® solution. The resulting solution was subjected to reverse phase high performance liquid chromatography and fluorescence detection.

[2] = Placental transport in pregnant rats: maternal and fetal serum levels after subcutaneous administration; assay type: in vivo; conditions: rat, 50 mg/kg subcutaneous
Procedure: In the assay using rats, 19 female rats on day 20 of their gestation period were administered 50 mg./kg. body weight metkephamid (acetate salt) subcutaneously. Sixty minutes after administration, the rats were decapitated, and their blood was collected in glass tubes. The fetuses were removed from the uterus, and the blood was collected either after decapitation or via heart puncture using glass capillary tubes.
as §1
For comparison, meperidine was administered to rats in the manner described for metkephamid. Meperidine content was assayed by adding 6.72 mg. NaF and 8.0 mg. EDTA to 1 ml. samples of serum. The samples were made alkaline with 0.1 ml. of 1.0 M NaOH and extracted with diethyl ether. The extracts were dried and dissolved in 0.3 ml. of ethyl acetate. An aliquot was injected into a gas chromatograph containing a 5 ft. glass column packed with 3% OV-1 on 100/120 mesh Gas Chrom Q. The oven temperature was 165° C., and the flame ionization detector temperature was 250° C.

Structure (SMILES) | level at 10 min ([1]; female, maternal serum, im, 5 mg/kg intramuscular, 10 min) [ng/mL] | level at 20 min ([1]; female, maternal serum, im, 5 mg/kg intramuscular, 20 min) [ng/mL] | level at 0.75 h ([1]; female, maternal serum, im, 5 mg/kg intramuscular, 45 min) [ng/mL] | fetal levels ([1]; 5 mg./kg., all measured times, limit of sensitivity about 50 ng./ml.) | Fetal serum level ([1]; 5 mg/kg intramuscular, 0 min) [µg/mL] | Maternal serum level ([1]; 5 mg/kg intramuscular, 0 min) [µg/mL] | Fetal serum level ([1]; 5 mg/kg intramuscular, 10 min) [µg/mL] | Fetal serum level ([1]; 5 mg/kg intramuscular, 20 min) [µg/mL] | Fetal serum level ([1]; 5 mg/kg intramuscular, 45 min) [µg/mL] | Fetal serum level ([2]; 60 min) [µg/mL] | Maternal serum level ([2]; 60 min) [µg/mL] | Fetal serum level ([2]; 45 min) [µg/mL] | Maternal serum level ([2]; 45 min) [µg/mL]
CC(=O)O.CSCC[C@@H](C(N)=O)N(C)C(=O)[C@H](Cc1ccccc1)NC(=O)CNC(=O)[C@@H](C)NC(=O)[C@@H](N)Cc1ccc(O)cc1 [Metkephamid, L-tyrosyl-D-alanyl-glycyl-L-phenylalanyl-N^α -methyl-L-methionylamide acetate] | 9460 ± 3010 | 9430 ± 2600 | 8540 ± 2600 | undetectable | 0.0 | 0.0 | 0.0 | 0.0 | 0.0 | 0.12 ± 0.04 | 7.17 ± 0.28 | – | –
CCOC(=O)C1(c2ccccc2)CCN(C)CC1 [Meperidine, meperidine, reference compound] | – | – | – | – | – | – | – | – | – | – | – | 2.02 ± 0.23 | 3.73 ± 0.89
